{"source": "paper PMC10574094", "about": "“Discovery of a SHP2 Degrader with In Vivo Anti-Tumor Activity” (Molecules, 2023)", "molecular_target": "T1, SHP2 (Homo sapiens, UniProt Q06124)", "T1 sequence (Q06124 1-593)": "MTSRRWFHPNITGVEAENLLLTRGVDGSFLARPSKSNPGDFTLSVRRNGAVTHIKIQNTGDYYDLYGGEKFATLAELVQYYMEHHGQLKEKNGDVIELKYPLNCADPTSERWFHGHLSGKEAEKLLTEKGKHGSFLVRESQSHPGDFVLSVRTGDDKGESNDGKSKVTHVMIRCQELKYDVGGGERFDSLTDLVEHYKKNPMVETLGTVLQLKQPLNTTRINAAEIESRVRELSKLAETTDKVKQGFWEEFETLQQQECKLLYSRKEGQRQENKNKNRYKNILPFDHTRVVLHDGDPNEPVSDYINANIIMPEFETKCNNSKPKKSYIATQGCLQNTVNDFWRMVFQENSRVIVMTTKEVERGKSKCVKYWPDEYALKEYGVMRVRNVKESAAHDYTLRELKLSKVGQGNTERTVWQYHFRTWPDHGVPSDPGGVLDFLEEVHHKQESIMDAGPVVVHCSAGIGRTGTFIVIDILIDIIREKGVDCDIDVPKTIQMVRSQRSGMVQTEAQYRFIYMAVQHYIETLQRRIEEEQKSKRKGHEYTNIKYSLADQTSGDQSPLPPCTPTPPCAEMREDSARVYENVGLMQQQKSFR", "test": "SHP2 level in KYSE-520 tumor homogenates (Western blot)", "assay_type": "in vivo, mice", "design": "from tissue; host or cells: KYSE-520 xenograft tumour from nude mice, whole tumour homogenate", "settings": "whole tumor homogenates, 50 mg/kg P9 IP", "method": "HEK293, SKBR3, U2OS, MCF7 and A549 cells were grown in DMEM supplemented with 10% FBS, penicillin (50 units/mL), and streptomycin (50 μg/mL) in a 37 °C incubator containing 5% CO2. KYSE-520 and H358 cells were grown in RPMI-1640 supplemented with 10% FBS, penicillin (50 units/mL), and streptomycin (50 μg/mL) in a 37 °C incubator containing 5% CO2. For western-blot analysis, protein samples were separated by SDS-PAGE, transferred to nitrocellulose membranes, and incubated overnight at 4 °C with corresponding primary antibodies diluted in 5% BSA in phosphate-buffered saline Tween (PBST). SuperSignal™ West Pico PLUS (PI34580; Thermo Scientific) was used to visualize the antibodies in the bioanalytical imaging system (Azure Biosystems c500). Anti-p-ERK1/2 (T202/Y204) (4370), and anti-ERK1/2 (4696) were purchased from Cell Signaling Technology. Anti-GAPDH (sc-365062), anti-SHP2 (sc-7384), anti-SHP1 (sc-7289), and anti-Actin (sc-8432) antibodies were purchased from Santa Cruz. Anti-PTP1B (ab244207) antibody was purchased from Abcam. […]\nFor the xenograft tumor study, KYSE-520 cells were suspended in PBS and a total of 3 × 10^6 cells (100 μL) were subcutaneously implanted into both the left and right flank using a 27-gauge needle. Tumor volume was calculated using the formula V = (W^2 × L)/2 for caliper measurements. […]", "data": [{"compound": "Cc1ncsc1-c1ccc([C@H](C)NC(=O)[C@@H]2C[C@@H](O)CN2C(=O)[C@@H](NC(=O)CCCCCCCCCN2CCN(C(=O)CCCCCC3(CN)CCN(c4cnc(Sc5cccc(Cl)c5Cl)c(N)n4)CC3)CC2)C(C)(C)C)cc1", "note": "[P9, (2S,4R)-1-((S)-2-(10-(4-(6-(1-(6-amino-5-((2,3-dichlorophenyl)thio)pyrazin-2-yl)-4-(aminomethyl)piperidin-4-yl)hexanoyl)piperazin-1-yl)decanamido)-3,3-dimethylbutanoyl)-4-hydroxy-N-((S)-1-(4-(4-methylthiazol-5-yl)phenyl)ethyl)pyrrolidine-2-carboxamide]", "values": [{"measurement": "SHP2 level, % of the control group", "result": "34 ± 18", "unit": "%"}]}]}
